Literature values as cited in US20120101005A1, “METHODS FOR PREDICTING THE TOXICITY OF A CHEMICAL” (GE HEALTHCARE UK LIMITED, priority 2009, published 2012).
Read-outs that look alike come from different tables or passages of the source. One block for each compound: values may come before it.

Columns and labels:
[1] = system: rat PC12 cells; settings: for NGF-induced neuronal differentiation of PC12 cells: monitored by generation of neurite processes
[2] = molecular target: p140 trk tyrosine kinase NGF-receptor (Rattus norvegicus, UniProt P35739); settings: read-out: IC50, p140 trk NGF-receptor autophosphorylation
[3] = molecular target: EGF receptor (Homo sapiens, UniProt P00533)
[4] = system: PDGF receptor
[5] = system: P19 EC cells
[6] = system: mouse P19 cell
[7] = system: p140 trk tyrosine kinase NGF-receptor; settings: compound interacts with NGF
[8] = system: common neurotrophin receptor p75NTR; settings: compound interacts with NGF
[9] = system: human embryonic stem cells
[10] = system: ES cells; settings: co-treatment with retinoic acid
[11] = system: ES cells
[12] = system: ERKs
[13] = system: JNKs
[14] = system: 3T3-F442A, 3T3-L1, Ob1771 and embryonic stem cells
[15] = system: C3H10T1/2 mesenchymal stem cells; settings: induced with 200 nM insulin, 1 μM BRL49653 and LGD1069; lipogenesis, oil red O-staining, AP2 and LPL expression
[16] = 1 μM on the first day of the differentiation process

Sequence of p140 trk tyrosine kinase NGF-receptor (Rattus norvegicus, UniProt P35739) (P35739 33-799): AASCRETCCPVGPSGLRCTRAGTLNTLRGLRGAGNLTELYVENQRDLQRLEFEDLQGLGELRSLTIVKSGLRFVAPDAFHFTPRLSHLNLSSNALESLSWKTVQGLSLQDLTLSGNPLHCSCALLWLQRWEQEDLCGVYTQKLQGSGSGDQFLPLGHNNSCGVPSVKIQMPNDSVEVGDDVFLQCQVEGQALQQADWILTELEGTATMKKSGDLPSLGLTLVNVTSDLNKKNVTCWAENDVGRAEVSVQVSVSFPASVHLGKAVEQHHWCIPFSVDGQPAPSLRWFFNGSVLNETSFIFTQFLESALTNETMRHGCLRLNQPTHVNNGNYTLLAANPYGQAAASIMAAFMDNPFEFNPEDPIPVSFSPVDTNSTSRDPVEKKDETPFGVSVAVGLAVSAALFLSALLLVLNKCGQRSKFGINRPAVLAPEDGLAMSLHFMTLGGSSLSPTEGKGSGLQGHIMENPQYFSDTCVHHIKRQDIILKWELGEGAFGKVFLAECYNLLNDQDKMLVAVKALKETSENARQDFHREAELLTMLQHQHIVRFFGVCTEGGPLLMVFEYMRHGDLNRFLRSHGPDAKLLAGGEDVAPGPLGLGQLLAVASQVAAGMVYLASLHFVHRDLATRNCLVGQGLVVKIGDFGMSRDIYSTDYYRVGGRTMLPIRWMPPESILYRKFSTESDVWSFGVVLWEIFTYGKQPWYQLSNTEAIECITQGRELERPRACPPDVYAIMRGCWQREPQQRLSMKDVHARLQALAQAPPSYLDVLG
Sequence of EGF receptor (P00533 25-1210): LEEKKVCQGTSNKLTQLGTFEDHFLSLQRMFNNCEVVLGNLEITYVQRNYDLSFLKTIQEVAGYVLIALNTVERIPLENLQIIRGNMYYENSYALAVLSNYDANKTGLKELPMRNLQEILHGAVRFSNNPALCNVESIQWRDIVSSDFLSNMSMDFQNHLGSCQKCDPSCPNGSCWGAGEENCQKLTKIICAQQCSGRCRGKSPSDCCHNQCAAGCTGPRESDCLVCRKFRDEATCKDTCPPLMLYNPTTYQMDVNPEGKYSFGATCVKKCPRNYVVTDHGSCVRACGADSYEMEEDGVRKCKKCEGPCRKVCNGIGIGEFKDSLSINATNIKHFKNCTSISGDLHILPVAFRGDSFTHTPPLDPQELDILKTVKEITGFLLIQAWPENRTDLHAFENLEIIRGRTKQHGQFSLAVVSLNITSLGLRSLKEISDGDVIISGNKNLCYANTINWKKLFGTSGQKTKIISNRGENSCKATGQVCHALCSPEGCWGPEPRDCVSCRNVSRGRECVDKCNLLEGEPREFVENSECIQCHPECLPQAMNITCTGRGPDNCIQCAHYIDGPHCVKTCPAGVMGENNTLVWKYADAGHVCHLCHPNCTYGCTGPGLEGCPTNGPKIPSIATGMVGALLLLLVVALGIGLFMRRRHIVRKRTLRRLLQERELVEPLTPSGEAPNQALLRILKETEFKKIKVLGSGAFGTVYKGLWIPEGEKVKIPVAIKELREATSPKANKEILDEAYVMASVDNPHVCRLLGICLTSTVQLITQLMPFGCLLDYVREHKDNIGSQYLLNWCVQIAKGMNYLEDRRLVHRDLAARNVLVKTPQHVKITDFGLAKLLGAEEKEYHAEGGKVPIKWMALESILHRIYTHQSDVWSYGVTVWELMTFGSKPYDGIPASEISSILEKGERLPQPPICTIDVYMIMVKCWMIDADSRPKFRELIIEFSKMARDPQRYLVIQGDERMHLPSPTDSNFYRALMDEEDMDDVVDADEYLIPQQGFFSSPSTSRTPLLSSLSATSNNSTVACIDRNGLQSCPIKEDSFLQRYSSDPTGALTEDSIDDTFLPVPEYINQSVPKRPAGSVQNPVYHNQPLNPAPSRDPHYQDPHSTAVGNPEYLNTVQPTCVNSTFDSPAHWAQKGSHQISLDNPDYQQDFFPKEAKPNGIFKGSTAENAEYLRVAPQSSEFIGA

Compound: CC(C)(C)c1cc(/C=C(\C#N)C(N)=S)cc(C(C)(C)C)c1O [AG-879]
NGF-induced neurite outgrowth in PC12 cells [1]: inhibits NGF-induced neurite outgrowth
IC50 [2]: 10 µM
inhibition of EGF receptor phosphorylation [3]: no inhibition
inhibition of PDGF receptor phosphorylation [4]: no inhibition

Compound: Nc1ncnc2c1ncn2C(C=O)OC(C=O)CO (centres unmarked) [AdOx, Adenosine dialdehyde]
expression levels of the neuronal markers β-tubulin, NeuroD1 and mash1 [5, 16]: decreased
number of neurites observed [5, 16]: decreased

Compound: CCCCCCCCCC(=O)N[C@H](CN1CCOCC1)[C@H](O)c1ccccc1 [D-PDMP, D-theo-1-phenyl-2-decanoylamino-3-morphlino-1-propanol]
death of P19-derived neurons [5]: causing the death of P19-derived neurons
cell death of undifferentiated P19 EC cells ([5]; 50 μM): without any indication of cell death
proliferation of the undifferentiated P19 EC cells ([5]; 50 μM, added 3 days prior to retinoic acid and maintained): reduced
neurite elongation ([5]; 50 μM, neurites present but failed to develop correctly): abolished neurite elongation
neurite outgrowth ([5]; P19 EC in-vitro neuronal differentiation model): inhibited neurite outgrowth

Compound: Cc1cc(S(C)(=O)=O)c(S(C)(=O)=O)cc1C(=O)NC(=N)N [EMD87580]
cardiomyocyte differentiation of mouse P19 embryonic carcinoma cells ([6]; during DMSO induction): inhibit the cardiomyocyte differentiation

Compound: COC(=O)[C@]1(O)C[C@H]2O[C@]1(C)n1c3ccc(O)cc3c3c4c(c5c6ccccc6n2c5c31)C(=O)NC4=O [Indocarbazostatin C]
NGF-induced neuronal differentiation of PC12 cells [1]: inhibitors

Compound: COC(=O)[C@]1(O)C[C@H]2O[C@]1(C)n1c3ccc(O)c(N)c3c3c4c(c5c6ccccc6n2c5c31)C(=O)NC4=O [Indocarbazostatin D]
NGF-induced neuronal differentiation of PC12 cells [1]: inhibitors

Compound: COC(=O)[C@@]1(O)C[C@H]2O[C@]1(C)n1c3ccccc3c3c4c(c5c6ccccc6n2c5c31)C(=O)NC4 [K-252a]
NGF-induced neuronal differentiation of PC12 cells [1]: effective inhibitors

Compound: C[C@]12O[C@H](C[C@]1(O)C(=O)O)n1c3ccccc3c3c4c(c5c6ccccc6n2c5c31)CNC4=O [K-252b]
NGF-induced neuronal differentiation of PC12 cells [1]: effective inhibitors

binding of NGF to p140 trk tyrosine kinase NGF-receptor [7]: preventing its binding
binding of NGF to p75NTR [8]: preventing its binding
Compound: Cn1c2ccc(NC(=O)c3ccccc3)cc2c(=O)n2nc(C(=O)O)cc12 [PD90780, 7-(Benzolylamino)-4,9-Dihydro-4-Methyl-9-Oxo-Pyrazolo[5,1-b]Quinazoline-2-Carboxlic Acid]
NGF-induced neuronal differentiation of PC12 cells [1]: abolishes

Compound: COc1cccc(-c2cc(=O)c3ccccc3o2)c1N [PD98059, 2″-Amino-3″-Methoxyflavone]
concentration at which reported as inhibitor of human embryonic stem cell cardiomyocyte differentiation [9]: 5 to 25 µM
NGF-induced neurite formation in PC12 cells [1]: completely blocks
cell viability of PC12 cells [1]: without affecting cell viability
adipocyte formation from ES cells [10]: prevents adipocyte formation
expression of adipogenic markers in ES cells [10]: prevented
adipocyte formation from ES cells ([10]; listed as PD68059): prevented
differentiation of ES cells into neuron or cardiomyocytes [11]: no effect

Compound: Cn1cc(C2=C(c3ccc(Cl)cc3Cl)C(=O)NC2=O)c2ccccc21 [SB216763]
concentration at which reported as inhibitor of human embryonic stem cell cardiomyocyte differentiation [9]: 10 to 25 µM

Compound: C[S+]([O-])c1ccc(-c2nc(-c3ccc(F)cc3)c(-c3ccncc3)[nH]2)cc1 (centres unmarked) [SB 203580, 4-(4″-fluorophenyl)-2-(4″-methylsulfinylphenyl)-5-(4″-pyridyl) imidazole]
P19 cell differentiation into cardiomyocytes ([6]; 10 μM, cardiac-actin by immuno-histochemistry, cardiac-actin and atrial natriuretic peptide by RT-PCR): prevent mouse P19 cell differentiation into cardiomycocytes
effect on the activities of ERKs [12]: no significant effect
effect on the activities of JNKs [13]: no significant effect
number of cardiomyocytes from human embryonic stem cells ([9]; 15 μM): dramatically reduces the number of cardiomyocytes
cardiomyocyte differentiation of human embryonic stem cells ([9]; 25 μM): completely blocked
generation of cardiomyocytes from human embryonic stem cells ([9]; 1-10 μM): enhances the generation of cardiomyocytes

Compound: CC(C)(C)NC(=O)[C@@H]1CN(Cc2cccnc2)CCN1C[C@@H](O)C[C@@H](Cc1ccccc1)C(=O)N[C@H]1c2ccccc2C[C@H]1O [indinavir]
adipocyte differentiation, by cell model [14]: inhibited the differentiation of only 3T3-L1 and 3T3-F442A cells

Compound: Cc1cccc(C)c1OCC(=O)N[C@@H](Cc1ccccc1)[C@@H](O)C[C@H](Cc1ccccc1)NC(=O)[C@H](C(C)C)N1CCCNC1=O [lopinavir]
adipocyte differentiation, by cell model [14]: inhibited adipocyte differentiation in all cells tested

Compound: Cc1c(O)cccc1C(=O)N[C@@H](CSc1ccccc1)[C@H](O)CN1C[C@H]2CCCC[C@H]2C[C@H]1C(=O)NC(C)(C)C [nelfinavir]
adipocyte differentiation of mesenchymal stem cells [15]: reduced the adipocyte differentiation
adipocyte differentiation, by cell model [14]: inhibited adipocyte differentiation in all cells tested

Compound: CC(C)c1nc(CN(C)C(=O)N[C@H](C(=O)N[C@@H](Cc2ccccc2)C[C@H](O)[C@H](Cc2ccccc2)NC(=O)OCc2cncs2)C(C)C)cs1 [ritonavir]
adipocyte differentiation of mesenchymal stem cells [15]: reduced the adipocyte differentiation
adipocyte differentiation, by cell model [14]: inhibited the differentiation of only 3T3-L1 and 3T3-F442A cells

Compound: CC(C)(C)NC(=O)[C@@H]1C[C@@H]2CCCC[C@@H]2CN1C[C@@H](O)[C@H](Cc1ccccc1)NC(=O)[C@H](CC(N)=O)NC(=O)c1ccc2ccccc2n1 [saquinavir]
adipocyte differentiation of mesenchymal stem cells [15]: reduced the adipocyte differentiation
adipocyte differentiation, by cell model [14]: inhibited the differentiation of only 3T3-L1 and 3T3-F442A cells
